In experiment [1] the test system is HDAC responsive SV40 promoter. The experiment is described as follows: Activity Assay 2: SV40 promoter-luciferase reporter in MCF7 derived 2.1.1 cells. It is filed as cell-based. To be noted: approx 16 hours. As for the experimental part:
Method. We generated a stable clone derived from MCF7 cells containing an integrated reporter construct with the SV40 immediate early promoter cloned upstream of the luciferase gene. MCF7 cells were transfected with pGL2-Basic (SV40/luciferase reporter) (Promega, UK) and pcDNA3 (expresses neomycin resistance gene) using Transfast transfection reagent. After 24 hours, cells were collected by trypsinisation and plated at low density. The following day, G418 was added to the growth medium. After ˜21 days, individual drug-resistant colonies were isolated and cultured. […] To test the effects of compound 001, 2.1.1 cells were incubated with various concentrations of compound 001 or an equivalent amount of DMSO as a control. The following day, cells were collected and luciferase activity detected using the Promega luciferase assay system and a TopCount (Perkin-Elmer).
MCF7 derived cells containing a stably integrated SV40 promoter-luciferase reporter plasmid were treated with the indicated concentrations of compound 001, or DMSO as a solvent control. Luciferase activity was determined after approx 16 hours. The data shown are derived from a single experiment performed in duplicate and are representative of multiple experiments.
In general terms: In a reporter assay the amount or activity of a reporter protein is the signal.

In experiment [2] the test system is HUT78 T-cell leukaemia cells. The experiment is described as follows: CyQuant cell proliferation assay, HUT78. It is filed as cell-based, human. To be noted: data not shown.
In experiment [3] the test system is normal human dermal fibroblasts (NHDF). The experiment is described as follows: Activity Assay 1: CyQuant cell proliferation assay, NHDF. It counts as cell-based. To be noted: 144 h, read-out: mean IC50 for growth inhibition (±SD), NHDF. As to the method:
(§1) Method; Cell proliferation assays were performed using the CyQuant™ assay system (Molecular Probes, Inc. USA) according to the manufacturer's instructions. This system utilises a proprietary green fluorescent dye which undergoes strong fluorescent enhancement on binding cellular nucleic acids, to allow determination of cell number with a linear detection range between 50 to 250,000 cells. Estrogen receptor positive MCF7 breast cancer cells (ECAAC) and NHDF cells (Cambrex, UK) were plated in 96 well plates, at a density of 1000 cells in 100 μl of cell culture medium per well. Compounds were added a minimum of 5 hours later, in serial dilutions in cell culture medium, in 100 μl volumes at 2× final concentration. Six days later cell culture medium was removed by inversion of the plate onto blotting paper and cells were gently washed once with 200 μl PBS. […] Fluorescence was then measured for each well using a Cytofluor II Fluoresence Multiwell Plate Reader and CytoFluor II software with filters at 480 nm for excitation and 520 nm for emission maxima. Cell proliferation was determined for mean values of duplicate samples as percentages relative to untreated cell samples (=100%). […]
(§2) MCF7 and NHDF were incubated with the indicated concentrations of compounds. After 6 days cell growth relative to untreated cells (=100%) was determined using the CyQuant™ assay. […]

In experiment [4] the test system is inflammation in Balb/c mice. Description: Activity Assay 8: oxazolone-induced ear inflammation in mice. It counts as in vivo. To be noted: 24 hours; for Change in ear weight: Mean ± SD, 8 animals per group. As to the method: We analysed the ability of compound 9A (the compound of formula (2) on page 7) to inhibit inflammation in mice. Balb/c mice were sensitised by application of 5% (w/v) oxazolone to abdominal shaved skin. After 7 days mice were challenged by topical application of 3% (w/v) oxalazone to the left ear and acetone to the right ear. After 30 minutes test compounds dissolved in acetone were applied to the ears (dorsal and ventral surface).

Experiment [5] relates to MCF7 human breast cancer cells. Description: Activity Assay 1: CyQuant cell proliferation assay, MCF7. It is filed as cell-based. As to the method:
as §1, §2

The test system of a further experiment is MCF7 cells. The experiment is described as follows: Activity Assay 3: cell cycle distribution and survival by propidium iodide flow cytometry. It is filed as cell-based. To be noted: MCF7, ~10×IC50 for growth inhibition, 24, 48 or 72 hours. As to the method:
Method; MCF7 cells were incubated with indicated concentrations of compounds, or left untreated as a control, for various times, as detailed in the figure legends. Cells were collected and the proportion of cells in different phases of the cell cycle determined using propidium iodide staining and flow cytometry as previously described (Purohit et al., Int J Ca 85, 584-9 2000). The proportion of cells with <G0/G1 content (pre G0) relative to total cells was calculated first. The proportion of cells in different cell cycle phases (G0/G1, S, G2/M) was calculated as a proportion of all cells in the cell cycle (i.e., total cells minus cells with <G0/G1 content).
MCF7 cells were incubated with the indicated concentrations of compounds (each equivalent to ˜10×IC50 values for growth inhibition), or DMSO as a solvent control, for 24, 48 or 72 hours. The proportion of cells in different phases of the cell cycle was determined by flow cytometry. Data shown are mean values ±SD, derived from two separate experiments, relative to untreated cells which are normalised to 1.
Background: A flow cytometer gives signals particle by particle.

The test system of experiment [6] is PC3 prostate cancer cells. Description: Activity Assay 6: CyQuant cell growth inhibition, PC3. It is filed as cell-based. To be noted: Homo sapiens, 96 h, PC3, 4 days. As for the experimental part:
(§3) We analysed the ability of compounds to inhibit the in vitro growth of human cancer cells. Cell proliferation assays were performed using the CyQuant™ assay system (Molecular Probes, Inc. USA) according to the manufacturer's instructions. MCF7 breast, A2780 ovarian and PC3 and LNCAP prostate cancer cells were plated in 96 well plates, at a density of 1000 cells for MCF7 cells or 5000 cells for M780/PC3/LNCAP cells, in 100 μl of cell culture medium per well. Compounds were added a minimum of 5 hours later, in serial dilutions in cell culture medium, in 100 μl volumes at 2× final concentration. Cell culture medium was removed after 4 (A2780, PC3 or LNCAP cells) or 6 days (MCF7 cells) by inversion of the plate onto blotting paper and cells were gently washed once with 200 μl PBS. Plates were frozen immediately for a minimum of one hour at −80° C. and then thawed. 200 μl of 1× CyQuant cell lysis buffer supplemented with dye, made according to the manufacturer's instruction, was added immediately to each well and incubated at room temperature for 3-5 minutes. Fluorescence was then measured for each well using a Cytofluor II Fluoresence Multiwell Plate Reader and CytoFluor II software with filters at 480 nm for excitation and 520 nm for emission maxima. Cell proliferation was determined for mean values of duplicate samples as percentages relative to untreated cell samples (=100%). Growth inhibition curves were used to derive IC50 values.

Experiment [7] deals with LNCAP prostate cancer cells. The experiment is described as follows: Activity Assay 6: CyQuant cell growth inhibition, LNCAP. It is filed as cell-based. The settings on record: Homo sapiens, 96 h, 4 days. As for the experimental part:
as §3

Each structure is given as a SMILES string.

As usually defined, the IC50 is the point on the concentration scale where inhibition reaches its midpoint. In the case of `CC(C)[C@H]1NC(=O)[C@H]2CSSCC/C=C/[C@H](CC(=O)N[C@H](C)C(=O)N2)OC(=O)CNC1=O` [Compound 9A, (E)-(1S,7R,10S,21R)-7-isopropyl-21-methyl-2-oxa-12,13-dithia-5,8,20,23-tetraaza-bicyclo[8.7.6]tricos-16-ene-3,6,9,19,22-pentaone], the “activity of the HDAC responsive SV40 promoter (luciferase activity)” value in experiment [1] is “effectively reverses HDAC-mediated repression of the SV40 immediate early promoter”. For the same molecule, the “growth of HUT78 T-cell leukaemia cells” value in experiment [2] was “inhibited the growth of these cells”. Moreover, the IC50 in experiment [3] came to 420 ± 42 nM; in experiment [5] (Homo sapiens, 144 h, MCF7, 6 days, CyQuant, mean ± SD of multiple experiments, read-out: mean IC50 for growth inhibition (±SD), MCF7), 121 ± 52 nM; in experiment [6], 50 nM; in experiment [7], 252 nM. Besides, the “% inhibition compared to vehicle” value in experiment [4] (0.1% topical in acetone) came to 33.3%; in experiment [4] (1% topical in acetone), 63.0%. For the same molecule, the “Change in ear weight” value in experiment [4] (0.1% topical in acetone) is listed as 42.4 ± 4.3 mg; in experiment [4] (1% topical in acetone), 23.5 ± 3.2 mg. In addition, the “potency of cancer cell growth inhibition compared with SAHA” value in experiment [5] (MCF7, p=0.003, Student's t-test) is on record as “significantly more potent than SAHA”. Further, in the experiment with MCF7 cells, the “cell cycle distribution and survival” value was “induce a predominant G2/M phase arrest and cell death”.

The values are drawn from patent publication US7977304B2, “FK 228 derivates as HDAC inhibitors” (University of Southampton Highfield, priority 2005, dated 2011).
